Results: the NIST ThermoML archive (doi:10.1016/j.jct.2008.02.005)
± gives the expanded uncertainty stated by the source.

Legend:
[1] = 101 kPa, Liquid; for viscosity: Capillary tube (Ostwald / Ubbelohde) method; for speed of sound: Sing-around technique in a fixed-path interferometer
[2] = xn = mol fraction of the nth substance listed; settings: 101 kPa, Liquid, x2 = 0; for viscosity: Capillary tube (Ostwald / Ubbelohde) method; for speed of sound: Sing-around technique in a fixed-path interferometer

| SMILES | mass density ([1]; 298.15 K) [kg/m3] | viscosity ([1]; 298.15 K) [mPa·s] | speed of sound ([1]; 298.15 K) [m/s] | mass density ([1]; 303.15 K) [kg/m3] | speed of sound ([1]; 303.15 K) [m/s] | mass density ([1]; 308.15 K) [kg/m3] | speed of sound ([1]; 308.15 K) [m/s] | viscosity ([2]; 298.15 K) [mPa·s] | speed of sound ([2]; 298.15 K) [m/s] | mass density ([2]; 298.15 K) [kg/m3] | speed of sound ([2]; 303.15 K) [m/s] | mass density ([2]; 303.15 K) [kg/m3] | speed of sound ([2]; 308.15 K) [m/s] | mass density ([2]; 308.15 K) [kg/m3] |
| --- | --- | --- | --- | --- | --- | --- | --- | --- | --- | --- | --- | --- | --- | --- |
| CCCCCCCCO [octan-1-ol] | 821.813 ± 0.54 | 7.508 ± 0.042 | 1348 ± 0.8 | 818.796 ± 0.54 | 1330.8 ± 0.8 | 815.286 ± 0.55 | 1314.1 ± 0.8 |  |  |  |  |  |  |  |
| CCCCCC [hexane] | 655.072 ± 0.92 | 0.313 ± 0.007 | 1077.8 ± 1.2 | 650.369 ± 0.92 | 1055.2 ± 1.2 | 645.767 ± 0.93 | 1032.9 ± 1.1 |  |  |  |  |  |  |  |
| CCCCCCCCCC [decane] | 726.806 ± 1.7 | 0.852 ± 0.015 | 1234.8 ± 3.1 | 723.042 ± 1.7 | 1215.2 ± 3.1 | 719.23 ± 1.7 | 1195.6 ± 3.1 |  |  |  |  |  |  |  |
| CCCCCCCC [octane] + CCCCCCCCO |  |  |  |  |  |  |  | 0.518 ± 0.007 | 1172.7 ± 0.8 | 698.58 ± 0.77 | 1152.1 ± 0.8 | 694.497 ± 0.78 | 1131.7 ± 0.8 | 690.416 ± 0.78 |

Next, values leading:

| mass density ([1]; 298.15 K) [kg/m3] | viscosity ([1]; 298.15 K) [mPa·s] | speed of sound ([1]; 298.15 K) [m/s] | mass density ([1]; 303.15 K) [kg/m3] | speed of sound ([1]; 303.15 K) [m/s] | mass density ([1]; 308.15 K) [kg/m3] | speed of sound ([1]; 308.15 K) [m/s] | viscosity ([2]; 298.15 K) [mPa·s] | speed of sound ([2]; 298.15 K) [m/s] | mass density ([2]; 298.15 K) [kg/m3] | speed of sound ([2]; 303.15 K) [m/s] | mass density ([2]; 303.15 K) [kg/m3] | speed of sound ([2]; 308.15 K) [m/s] | mass density ([2]; 308.15 K) [kg/m3] | SMILES |
| --- | --- | --- | --- | --- | --- | --- | --- | --- | --- | --- | --- | --- | --- | --- |
| 698.58 ± 0.77 | 0.518 ± 0.007 | 1172.7 ± 0.8 | 694.497 ± 0.78 | 1152.1 ± 0.8 | 690.416 ± 0.78 | 1131.7 ± 0.8 |  |  |  |  |  |  |  | CCCCCCCC [octane] |
|  |  |  |  |  |  |  | 0.852 ± 0.015 | 1234.8 ± 3.1 | 726.806 ± 1.7 | 1215.2 ± 3.1 | 723.042 ± 1.7 | 1195.6 ± 3.1 | 719.23 ± 1.7 | CCCCCCCCCC [decane] + CCCCCCCCO |
|  |  |  |  |  |  |  | 0.313 ± 0.007 | 1077.8 ± 1.2 | 655.072 ± 0.92 | 1055.2 ± 1.2 | 650.369 ± 0.92 | 1032.9 ± 1.1 | 645.767 ± 0.93 | CCCCCC [hexane] + CCCCCCCCO |
